BigSolDB 2.1

CCCSc1ccc2nc(NC(=O)OC)[nH]c2c1
solubility (mole fraction)
Details	278.15 K	283.15 K	288.15 K	293.15 K	298.15 K	303.15 K	308.15 K	313.15 K	318.15 K	323.15 K
in acetone	0.00151	0.0018	0.00213	0.00254	0.00297	0.00344	0.00402	0.00463	0.00535	0.00613
in isopropanol	0.000106	0.00013	0.000158	0.000192	0.000229	0.000276	0.00033	0.000388	0.000453	0.000532
in methanol	8.85e-05	0.000109	0.000132	0.000159	0.000193	0.00023	0.000273	0.000327	0.000381	0.000448
in water	1.59e-07	2.16e-07	2.9e-07	3.99e-07	5.31e-07	6.93e-07	9.18e-07	1.19e-06	1.56e-06	1.98e-06
